{"source": "patent US20020035038A1", "about": "“Fungicidal combinations comprising thieno[2,3-d]pyrimidin-4-one” (priority 1998, published 2002)", "test_system": "Erysiphe graminis f.sp. hordei", "experiment": "Leaf-disc-test, efficacy against Erysiphe graminis f.sp. hordei on barley (Example B-2 c)", "type": "in vivo", "settings": "single active ingredient, curative application 2 days after inoculation, barley leaf segments, infection in control: 68%", "excerpt": "A synergistic effect exists whenever the action of an active ingredient combination is greater than the sum of the actions of the individual components. The action to be expected E for a given active ingredient combination obeys the so-called COLBY formula and can be calculated as follows (COLBY, S. R. “Calculating synergistic and antagonistic responses of herbicide combination”. Weeds, Vol. 15, pages 20-22; 1967): According to Colby, the expected (additive) action of active ingredients I+II using p+q ppm of active ingredient is [formula] If the action actually observed (O) is greater than the expected action (E), then the action of the combination is superadditive, i.e. there is a synergistic effect. Efficacy Against Erysiphe graminis f.sp. hordei on Barley c) Leaf-disc-test Barley plants, cv. “Hasso” were cultivated under greenhouse conditions at 20° C. in TKS-1 standard soil for 10 days. Leaf segments with a length of 10 mm were cut out of the primary leaves and were placed with the upper side up in multiple well plates (24 wells per plate). Each well contains 2 ml of 0.2% water agar+35 ppm benzimidazole. The fungicide treatment was carried out 2 days after inoculation (curative-application) by a total volume of 400 μl that were sprayed with an “air brush” on 4 leaf segments meaning 4 replicates. The inoculated leaf segments were incubated for 1 week in an incubation chamber by 18° C., the first two days in the dark, and the five next days by 12 hours light. After the incubation period, the % leaf attack was estimated with the help of a binocular and the % activity was calculated relative to the check."}
{"compound": "CC(C1CC1)C(O)(Cn1cncn1)c1ccc(Cl)cc1", "note": "(stereo not drawn) [cyproconazole]", "values": [{"measurement": "% activity observed", "setting": "conc. 0.0025 %", "result": 36, "unit": "%"}]}
{"compound": "CC1COC(Cn2cncn2)(c2ccc(Oc3ccc(Cl)cc3)cc2Cl)O1", "note": "(stereo not drawn) [difenoconazole]", "values": [{"measurement": "% activity observed", "setting": "conc. 0.01 %", "result": 0, "unit": "%"}, {"measurement": "% activity observed", "setting": "conc. 0.025 %", "result": 41, "unit": "%"}]}
